Measured values taken from ChEMBL document CHEMBL1201862, “PubChem BioAssay data set” (2004).
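1) Cells in 96-well plates. 2) Compound, 48 h, 5 concentrations. 3) Linear interpolation between surrounding doses. 4) Unreached endpoint = highest concentration. GI50 is the concentration that inhibits growth by half.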 Activity calls are given as the source filed them. Cut-off read from the data, not from the text of the source: active = GI50 up to about 1.1 µM and inactive = higher.

Assays:
Assay in all cases: NCI-60 cell line screen, 48 h
[1] = test system: MOLT-4
[2] = test system: PC-3
[3] = test system: SK-MEL-2
[4] = test system: LOX IMVI
[5] = test system: OVCAR-3
[6] = test system: COLO 205
[7] = test system: K562
[8] = test system: KM12
[9] = test system: SW-620
[10] = test system: UO-31
[11] = test system: OVCAR-4
[12] = test system: NCI-H226
[13] = test system: MDA-MB-231
[14] = test system: NCI-H522
[15] = test system: HCC 2998
[16] = test system: MDA-N
[17] = test system: OVCAR-8
[18] = test system: EKVX
[19] = test system: SF-539
[20] = test system: TK-10

| SMILES | GI50 [1] | GI50 [2] | GI50 [3] | GI50 [4] | GI50 [5] | GI50 [6] | GI50 [7] | GI50 [8] | GI50 [9] | GI50 [10] | GI50 [11] | GI50 [12] | GI50 [13] | GI50 [14] | GI50 [15] | GI50 [16] | GI50 [17] | GI50 [18] | GI50 [19] | GI50 [20] |
| --- | --- | --- | --- | --- | --- | --- | --- | --- | --- | --- | --- | --- | --- | --- | --- | --- | --- | --- | --- | --- |
| CC1=C(C(=O)NCCCN(CCO)CCO)CC(C(=O)NCCCN(CCO)CCO)=C(C)N1 | > 100 µM (inactive) | 59.8 µM (inactive) | > 100 µM (inactive) | > 100 µM (inactive) | > 100 µM (inactive) | > 100 µM (inactive) | > 100 µM (inactive) | 85.1 µM (inactive) | > 100 µM (inactive) | 93.5 µM (inactive) | > 100 µM (inactive) | > 100 µM (inactive) | 40.7 µM (inactive) | 98.9 µM (inactive) | > 100 µM (inactive) | 86.1 µM (inactive) | > 100 µM (inactive) | > 100 µM (inactive) | > 100 µM (inactive) | > 100 µM (inactive) |
| Cc1ccc(S(=O)(=O)c2[nH]cc(/C(=C\C3CCCCC3)[N+](=O)[O-])c2C2CCCCC2)cc1 | 0.324 µM (active) | 0.472 µM (active) | 0.377 µM (active) | 0.202 µM (active) | 0.27 µM (active) | 0.25 µM (active) | 0.251 µM (active) | 1.79 µM (inactive) | 0.376 µM (active) | 0.493 µM (active) | 0.388 µM (active) | 0.832 µM (active) | 0.217 µM (active) | 0.208 µM (active) | 0.682 µM (active) | 0.301 µM (active) | 0.368 µM (active) | 0.354 µM (active) | 0.462 µM (active) | 0.544 µM (active) |
| CCOS(=O)(=O)c1ccc(-c2c3nc(c(-c4ccc(S(=O)(=O)OCC)cc4)c4ccc([nH]4)c(-c4ccc(S(=O)(=O)OCC)cc4)c4nc(c(-c5ccc(S(=O)(=O)OCC)cc5)c5ccc2[nH]5)C=C4)C=C3)cc1 | > 31.6 µM (inactive) | > 31.6 µM (inactive) | > 31.6 µM (inactive) | > 10 µM (inactive) | > 10 µM (inactive) | > 31.6 µM (inactive) | > 10 µM (inactive) | > 31.6 µM (inactive) | > 31.6 µM (inactive) | 24.8 µM (inactive) | > 31.6 µM (inactive) | 18.3 µM (inactive) | > 31.6 µM (inactive) | 10.5 µM (inactive) | > 31.6 µM (inactive) | > 31.6 µM (inactive) | > 31.6 µM (inactive) | > 31.6 µM (inactive) | 8.13 µM (inactive) | > 31.6 µM (inactive) |
| CCOC(=O)/C1=C(\C)N(Cc2ccccc2)C(=O)c2ccccc2C(=O)c2c(O)ccc(O)c21 | > 100 µM (inactive) | > 100 µM (inactive) | > 100 µM (inactive) | > 100 µM (inactive) | > 100 µM (inactive) | > 100 µM (inactive) | > 100 µM (inactive) | > 100 µM (inactive) | > 100 µM (inactive) | > 100 µM (inactive) | > 100 µM (inactive) | > 100 µM (inactive) | > 100 µM (inactive) | 24.1 µM (inactive) | > 100 µM (inactive) | > 100 µM (inactive) | > 100 µM (inactive) | 80.7 µM (inactive) | > 100 µM (inactive) | > 100 µM (inactive) |
| Nc1ccc(Cc2ccc(/N=C\c3ccc(OCc4cccc(COc5ccc(/C=N\c6ccc(Cc7ccc(N)cc7)cc6)cc5)n4)cc3)cc2)cc1 | > 100 µM (inactive) | > 100 µM (inactive) | 39.2 µM (inactive) | > 100 µM (inactive) | 72.3 µM (inactive) | > 100 µM (inactive) | > 100 µM (inactive) | > 100 µM (inactive) | > 100 µM (inactive) | > 100 µM (inactive) | 85.1 µM (inactive) | > 100 µM (inactive) | 27 µM (inactive) | > 100 µM (inactive) | > 100 µM (inactive) | > 100 µM (inactive) | 62.8 µM (inactive) | 94.6 µM (inactive) | 4.29 µM (inactive) | 81.3 µM (inactive) |
| CCSc1nn(-c2c3ccccc3nc3ccccc23)c(=S)s1 | > 100 µM (inactive) | > 100 µM (inactive) | > 100 µM (inactive) | > 100 µM (inactive) | > 100 µM (inactive) | > 100 µM (inactive) | > 100 µM (inactive) | > 100 µM (inactive) | > 100 µM (inactive) | > 100 µM (inactive) | > 100 µM (inactive) | > 100 µM (inactive) | > 100 µM (inactive) | > 100 µM (inactive) | > 100 µM (inactive) | > 100 µM (inactive) | > 100 µM (inactive) | > 100 µM (inactive) | > 100 µM (inactive) | > 100 µM (inactive) |
| COc1cc2c3c(n(C)c(=O)c2cc1OC)-c1cc2c(cc1C3=O)OCO2 | 0.44 µM (active) | > 70 µM (inactive) | > 42 µM (inactive) | 8.59 µM (inactive) | 53.5 µM (inactive) | > 100 µM (inactive) | 6.87 µM (inactive) | > 100 µM (inactive) | 10.2 µM (inactive) | 1.63 µM (inactive) | > 100 µM (inactive) | > 72.8 µM (inactive) | > 57.1 µM (inactive) | 1.46 µM (inactive) | > 80.5 µM (inactive) | 41.6 µM (inactive) | 38.4 µM (inactive) | 35.3 µM (inactive) | 8.75 µM (inactive) | > 100 µM (inactive) |
| COc1ccccc1-c1cc(O)c2cccnc2n1 | 35.2 µM (inactive) | 40.2 µM (inactive) | 36.5 µM (inactive) | 33 µM (inactive) | 36.5 µM (inactive) | 24.8 µM (inactive) | 30.3 µM (inactive) | 35.6 µM (inactive) | 30.1 µM (inactive) | 70.3 µM (inactive) | 69.5 µM (inactive) | 49.7 µM (inactive) | 52.6 µM (inactive) | 46.9 µM (inactive) | > 100 µM (inactive) | 20 µM (inactive) | 37.7 µM (inactive) | 53.6 µM (inactive) | 56.9 µM (inactive) | > 100 µM (inactive) |
| CC(=O)OCCn1c(Cc2ccc(C)cc2)nn(C(C)=O)c1=O | > 100 µM (inactive) | > 100 µM (inactive) | > 100 µM (inactive) | > 100 µM (inactive) | > 100 µM (inactive) | > 100 µM (inactive) | > 100 µM (inactive) | > 100 µM (inactive) | > 100 µM (inactive) | > 100 µM (inactive) | > 100 µM (inactive) | > 100 µM (inactive) | > 100 µM (inactive) | > 100 µM (inactive) | > 100 µM (inactive) | > 100 µM (inactive) | > 100 µM (inactive) | > 100 µM (inactive) | > 100 µM (inactive) | > 100 µM (inactive) |
| COC(=O)c1cc2c(cc1C(=O)OC)[C@@]1(C)CCCC(C)(C)C1CC2 (some centres undefined) | 15.1 µM (inactive) | 14.8 µM (inactive) | 17.1 µM (inactive) | 18.1 µM (inactive) | 10.2 µM (inactive) | – | 13.8 µM (inactive) | 15.2 µM (inactive) | 18.7 µM (inactive) | 17.8 µM (inactive) | 22.4 µM (inactive) | 17.4 µM (inactive) | 17.3 µM (inactive) | 16.9 µM (inactive) | 17.4 µM (inactive) | 21.9 µM (inactive) | 30.9 µM (inactive) | 13.3 µM (inactive) | 22 µM (inactive) | 19.5 µM (inactive) |
